Assay results reported in patent US20240342320A1, “POLYPEPTIDE TARGETING INTEGRIN ALPHA 6 AND USE THEREOF” (GUANGZHOU GENBIONOVA MEDICAL TECHNOLOGY CO., LTD., priority 2021, published 2024).

Key:
[1] = system: HCCLM3 subcutaneous tumors with high integrin α6 expression; test: Near infrared imaging in HCCLM3 subcutaneous tumor bearing mice; type: in vivo; conditions: 2 μl of 1 mM, tail vein, 24 hours
Method: (§1) In the near infrared imaging of small animals, a 2 μl of 1 mM fluorescent probe RWYD-PEG4-K(ICG)-K(NOTA) (structural formula shown in FIG. 1C) was injected into the tail vein of HCCLM3 subcutaneous tumor bearing mice. After 24 hours of internal circulation, the distribution in the subcutaneous tumor bearing mice was observed.

[2] = system: Hep3B subcutaneous tumors without expression of integrin α6; test: Near infrared imaging, Hep3B subcutaneous tumors; type: in vivo, mice
[3] = system: HCCLM3 subcutaneous tumors with high integrin α6 expression; test: Near infrared imaging of HCCLM3 subcutaneous tumor bearing mice; type: in vivo; conditions: tail vein, 24 hours
Method: as §1

[4] = system: Hep3B subcutaneous tumors without expression of integrin α6; test: Near infrared imaging of Hep3B subcutaneous tumors; type: in vivo, mice

Substance	tumor uptake, near infrared imaging [1]	tumor uptake, near infrared imaging [2]	tumor uptake, near infrared imaging [3]	tumor uptake, near infrared imaging [4]
RWYD-PEG4-K(ICG)-K(NOTA) [listing 1 of 2 here]	high taken up by HCCLM3 subcutaneous tumors	not high taken up by Hep3B subcutaneous tumors		
RWYD-PEG4-K(ICG)-K(NOTA) [listing 2 of 2 here]			high taken up	not high taken up
